In one experiment the test system is Cryptococcus neoformans. The experiment is described as follows: Antifungal activity against Cryptococcus neoformans. Type of experiment: functional.
The next experiment deals with Trichophyton benhamiae. The experiment is described as follows: Antifungal activity against Trichophyton mentagrophytes. Type of experiment: functional, Arthroderma benhamiae.
A further experiment has as its system Candida parapsilosis. The experiment is described as follows: Antifungal activity against Candida parapsilosis. As to conditions: Lodderomyces parapsilosis, ATCC 22019. It counts as functional.
Another experiment relates to Aspergillus fumigatus. The experiment is described as follows: Antifungal activity against Aspergillus fumigatus. Type of experiment: functional.
For a further experiment, the system named is Candida albicans. The experiment is described as follows: Antifungal activity against Candida albicans. It counts as functional.
The test system of another experiment is Sporothrix schenckii. The experiment is described as follows: Antifungal activity against Sporothrix schenckii. Type of experiment: functional.
The test system of another experiment is Klebsiella pneumoniae. The experiment is described as follows: Antibacterial activity against Klebsiella pneumoniae. It counts as functional.
The subject of another experiment is Escherichia coli. The experiment is described as follows: Antibacterial activity against Escherichia coli. Type of experiment: functional.
The subject of the next experiment is Pseudomonas aeruginosa. The experiment is described as follows: Antibacterial activity against Pseudomonas aeruginosa. It counts as functional.
In a further experiment the test system is Staphylococcus aureus. The experiment is described as follows: Antibacterial activity against Staphylococcus aureus. Type of experiment: functional.
For the next experiment, the system named is Enterococcus faecalis. The experiment is described as follows: Antibacterial activity against Streptococcus faecalis. Type of experiment: functional.

Converted amounts (≈) assume the structure as drawn.

For `OC(Cn1cncn1)(Cn1cncn1)c1ccc(F)cc1F` [FLUCONAZOLE], the MIC (usually the smallest concentration in the dilution series that meets the test's criterion for growth inhibition) turned out to be 1 µg/mL (≈ 3.27 µM) in the experiment with Cryptococcus neoformans; 0.5 µg/mL (≈ 1.63 µM) against Trichophyton benhamiae; 2 µg/mL (≈ 6.53 µM) against Candida parapsilosis; 2 µg/mL (≈ 6.53 µM) in the experiment with Aspergillus fumigatus; 1 µg/mL (≈ 3.27 µM) against Candida albicans; 2 µg/mL (≈ 6.53 µM) with Sporothrix schenckii.
For the compound `COC(=O)C(C)/N=C1/C(=O)c2ccccc2C(O)=C1O` (centres undefined), the MIC against Cryptococcus neoformans is 25 µg/mL (≈ 90.8 µM); against Trichophyton benhamiae it was more than 50 µg/mL; in the experiment on Candida parapsilosis, 50 µg/mL (≈ 182 µM); against Aspergillus fumigatus, more than 50 µg/mL; in the experiment on Candida albicans, more than 50 µg/mL; in the experiment with Sporothrix schenckii it was more than 50 µg/mL.
For `NC[C@H]1O[C@H](O[C@H]2[C@H](O)[C@@H](O[C@H]3O[C@H](CO)[C@@H](O)[C@H](N)[C@H]3O)[C@H](N)C[C@@H]2N)[C@H](O)[C@@H](O)[C@@H]1O` [KANAMYCIN], the MIC90 (in general, the lowest concentration that inhibits either 90% of growth or 90% of the strains tested, depending on the study) with Klebsiella pneumoniae was 32 µg/mL (≈ 66 µM); with Escherichia coli, 16 µg/mL (≈ 33 µM); in the experiment with Pseudomonas aeruginosa, more than 128 µg/mL; in the experiment on Staphylococcus aureus it was 2 µg/mL (≈ 4.13 µM).
Regarding `COC(=O)C/N=C1\C=C(O)c2ccccc2C1=O`, the MIC against Cryptococcus neoformans is 50 µg/mL (≈ 204 µM); in the experiment with Trichophyton benhamiae, more than 50 µg/mL; against Candida parapsilosis, 50 µg/mL (≈ 204 µM); against Aspergillus fumigatus, 25 µg/mL (≈ 102 µM); with Candida albicans it was 50 µg/mL (≈ 204 µM); in the experiment with Sporothrix schenckii it was 50 µg/mL (≈ 204 µM).
For the compound `CC(C)N(C1=CC(=O)c2c(O)ccc(O)c2C1=O)C(C)C`, the MIC in the experiment on Cryptococcus neoformans is more than 50 µg/mL; against Trichophyton benhamiae, 50 µg/mL (≈ 173 µM); in the experiment on Aspergillus fumigatus, more than 50 µg/mL; against Candida albicans, more than 50 µg/mL; against Sporothrix schenckii, more than 50 µg/mL.
`NC[C@H]1O[C@H](O[C@H]2[C@H](O)[C@@H](O[C@H]3O[C@H](CO)[C@@H](O)[C@H](N)[C@H]3O)[C@H](N)C[C@@H]2N)[C@H](N)C[C@@H]1O` [TOBRAMYCIN]: the minimal inhibitory concentration (MIC) in the experiment with Klebsiella pneumoniae was determined as 1 µg/mL (≈ 2.14 µM); against Escherichia coli, 0.5 µg/mL (≈ 1.07 µM); against Pseudomonas aeruginosa, 4 µg/mL (≈ 8.56 µM); in the experiment with Staphylococcus aureus it was 0.25 µg/mL (≈ 0.535 µM); in the experiment on Enterococcus faecalis, 32 µg/mL (≈ 68.4 µM).
Take `COC(=O)C(CCSC)/N=C1/C(=O)c2ccccc2C(O)=C1O` (centres undefined): the MIC in the experiment with Klebsiella pneumoniae is more than 50 µg/mL; in the experiment with Escherichia coli, more than 50 µg/mL; with Cryptococcus neoformans, 12.5 µg/mL (≈ 37.3 µM); in the experiment on Trichophyton benhamiae, 12.5 µg/mL (≈ 37.3 µM); in the experiment with Pseudomonas aeruginosa it was more than 50 µg/mL; in the experiment on Candida parapsilosis, 25 µg/mL (≈ 74.5 µM). The minimal inhibitory concentration (MIC) against Aspergillus fumigatus is 12.5 µg/mL (≈ 37.3 µM); with Candida albicans, 12.5 µg/mL (≈ 37.3 µM); against Staphylococcus aureus it was more than 50 µg/mL; against Sporothrix schenckii it was 25 µg/mL (≈ 74.5 µM); in the experiment with Enterococcus faecalis, 25 µg/mL (≈ 74.5 µM).
Regarding `O=C1c2sc3nccn3c2C(=O)c2c(O)ccc(O)c21`, the minimal inhibitory concentration (MIC) was more than 50 µg/mL against Klebsiella pneumoniae; 50 µg/mL (≈ 175 µM) against Escherichia coli; less than 12.5 µg/mL against Cryptococcus neoformans; 25 µg/mL (≈ 87.3 µM) against Trichophyton benhamiae; more than 50 µg/mL with Pseudomonas aeruginosa; more than 50 µg/mL in the experiment with Aspergillus fumigatus. Besides, the minimum inhibitory concentration (MIC) against Candida albicans is 25 µg/mL (≈ 87.3 µM); with Staphylococcus aureus, 50 µg/mL (≈ 175 µM); against Sporothrix schenckii, less than 12.5 µg/mL; against Enterococcus faecalis it was 25 µg/mL (≈ 87.3 µM).
`O=C1c2ccccc2C(=O)c2c1sc1nccn21`: the MIC in the experiment on Klebsiella pneumoniae is more than 50 µg/mL; in the experiment with Escherichia coli, 50 µg/mL (≈ 197 µM); with Cryptococcus neoformans it was 12.5 µg/mL (≈ 49.2 µM); against Trichophyton benhamiae, 25 µg/mL (≈ 98.3 µM); against Pseudomonas aeruginosa it was more than 50 µg/mL; with Aspergillus fumigatus, 25 µg/mL (≈ 98.3 µM). Further, the minimum inhibitory concentration (MIC) in the experiment on Candida albicans was determined as 50 µg/mL (≈ 197 µM); against Staphylococcus aureus it was 50 µg/mL (≈ 197 µM); against Sporothrix schenckii, 25 µg/mL (≈ 98.3 µM); in the experiment with Enterococcus faecalis, 25 µg/mL (≈ 98.3 µM).
Turning to `COC(=O)C/N=C1/C(=O)c2ccccc2C(O)=C1O`, the minimal inhibitory concentration (MIC) against Klebsiella pneumoniae is more than 50 µg/mL; in the experiment with Escherichia coli, 50 µg/mL (≈ 191 µM); in the experiment on Pseudomonas aeruginosa, 50 µg/mL (≈ 191 µM); against Staphylococcus aureus it was 50 µg/mL (≈ 191 µM); against Enterococcus faecalis, 50 µg/mL (≈ 191 µM).
Regarding `COC(=O)C(CCSC)/N=C1\C=C(O)c2ccccc2C1=O` (centres undefined), the minimum inhibitory concentration (MIC) was 6.25 µg/mL (≈ 19.6 µM) in the experiment on Klebsiella pneumoniae; more than 50 µg/mL with Escherichia coli; 25 µg/mL (≈ 78.3 µM) against Cryptococcus neoformans; more than 50 µg/mL in the experiment on Trichophyton benhamiae; more than 50 µg/mL with Pseudomonas aeruginosa; more than 50 µg/mL in the experiment on Candida parapsilosis. The MIC against Aspergillus fumigatus was more than 50 µg/mL; against Candida albicans, more than 50 µg/mL; against Staphylococcus aureus, more than 50 µg/mL; in the experiment on Sporothrix schenckii it was more than 50 µg/mL; with Enterococcus faecalis it was 12.5 µg/mL (≈ 39.1 µM).
As to GENTAMICIN, the results for the MIC with Klebsiella pneumoniae, against Pseudomonas aeruginosa and against Staphylococcus aureus were 0.39 µg/mL, 0.78 µg/mL and 0.78 µg/mL, respectively.
With `C[C@@H]1[C@H](O)[C@@H](C)/C=C/C=C/C=C/C=C/C=C/C=C/C=C/[C@H](O[C@@H]2O[C@H](C)[C@@H](O)[C@H](N)[C@@H]2O)C[C@@H]2O[C@](O)(C[C@@H](O)C[C@@H](O)[C@H](O)CC[C@@H](O)C[C@@H](O)CC(=O)O[C@H]1C)C[C@H](O)[C@H]2C(=O)O` [AMPHOTERICIN B], the MIC was 0.78 µg/mL (≈ 0.844 µM) in the experiment on Cryptococcus neoformans, 1.56 µg/mL (≈ 1.69 µM) in the experiment with Trichophyton benhamiae and 0.39 µg/mL (≈ 0.422 µM) against Candida albicans.
`COC(=O)C(C)/N=C1\C=C(O)c2ccccc2C1=O` (centres undefined): the MIC against Klebsiella pneumoniae was 25 µg/mL (≈ 96.4 µM); against Escherichia coli it was more than 50 µg/mL; in the experiment with Pseudomonas aeruginosa it was more than 50 µg/mL; with Staphylococcus aureus, more than 50 µg/mL; with Enterococcus faecalis, more than 50 µg/mL.
In the case of `COC(=O)C(CC(C)C)/N=C1\C=C(O)c2ccccc2C1=O` (centres undefined), the minimal inhibitory concentration (MIC) in the experiment with Klebsiella pneumoniae was 6.25 µg/mL (≈ 20.7 µM); against Escherichia coli, 12.5 µg/mL (≈ 41.5 µM); in the experiment on Cryptococcus neoformans it was 25 µg/mL (≈ 83 µM); against Trichophyton benhamiae, more than 50 µg/mL; against Pseudomonas aeruginosa, more than 50 µg/mL; against Candida parapsilosis it was 50 µg/mL (≈ 166 µM). In addition, the MIC against Aspergillus fumigatus was more than 50 µg/mL; against Candida albicans, more than 50 µg/mL; with Staphylococcus aureus, 12.5 µg/mL (≈ 41.5 µM); in the experiment with Sporothrix schenckii, more than 50 µg/mL; in the experiment on Enterococcus faecalis it was 12.5 µg/mL (≈ 41.5 µM).
On to `CC(C)N(C1=C(O)C(=O)c2ccccc2C1=O)C(C)C`, for which the minimal inhibitory concentration (MIC) against Klebsiella pneumoniae was more than 50 µg/mL; in the experiment with Escherichia coli, more than 50 µg/mL; in the experiment with Pseudomonas aeruginosa, 50 µg/mL (≈ 183 µM); with Staphylococcus aureus it was more than 50 µg/mL; in the experiment on Enterococcus faecalis, more than 50 µg/mL.
As to `O=C1C(=O)c2ccccc2C(O)=C1Sc1ncc[nH]1`, the MIC against Klebsiella pneumoniae is more than 50 µg/mL; against Escherichia coli, more than 50 µg/mL; in the experiment with Cryptococcus neoformans, 50 µg/mL (≈ 184 µM); against Trichophyton benhamiae, more than 50 µg/mL; in the experiment on Pseudomonas aeruginosa, more than 50 µg/mL; in the experiment on Candida parapsilosis, more than 50 µg/mL. For the same compound, the MIC in the experiment with Aspergillus fumigatus is more than 50 µg/mL; in the experiment with Candida albicans, more than 50 µg/mL; in the experiment on Staphylococcus aureus it was 50 µg/mL (≈ 184 µM); against Sporothrix schenckii it was more than 50 µg/mL; in the experiment with Enterococcus faecalis, 25 µg/mL (≈ 91.8 µM).
With `NCC[C@H](O)C(=O)N[C@@H]1C[C@H](N)[C@@H](O[C@H]2O[C@H](CN)[C@@H](O)[C@H](O)[C@H]2O)[C@H](O)[C@H]1O[C@H]1O[C@H](CO)[C@@H](O)[C@H](N)[C@H]1O` [AMIKACIN], the minimum inhibitory concentration (MIC) in the experiment with Klebsiella pneumoniae is 1 µg/mL (≈ 1.71 µM); against Escherichia coli, 1 µg/mL (≈ 1.71 µM); in the experiment on Pseudomonas aeruginosa it was 2 µg/mL (≈ 3.42 µM); against Staphylococcus aureus, 16 µg/mL (≈ 27.3 µM); against Enterococcus faecalis, more than 64 µg/mL.
With `Clc1ccc(COC(Cn2ccnc2)c2ccc(Cl)cc2Cl)c(Cl)c1` (centres undefined) [MICONAZOLE], the MIC was 12.5 µg/mL (≈ 30 µM) in the experiment with Cryptococcus neoformans, less than 0.78 µg/mL in the experiment on Trichophyton benhamiae, 12.5 µg/mL (≈ 30 µM) in the experiment with Aspergillus fumigatus and 25 µg/mL (≈ 60.1 µM) in the experiment with Candida albicans.
Regarding NYSTATIN, the values for the minimum inhibitory concentration (MIC) against Cryptococcus neoformans, against Candida albicans and in the experiment on Sporothrix schenckii were 3.5 µg/mL, 7.8 µg/mL and 13.2 µg/mL, respectively.

For the origin of these results see ChEMBL document CHEMBL1141945, “Synthesis and biological evaluation of novel (L)-alpha-amino acid methyl ester, heteroalkyl, and aryl substituted 1,4-naphthoquinone derivatives as antifungal and antibacterial agents” (2005).
